Test system: Serotoninödem an der Ratte
Experiment: Antiserotonin effect on serotonin-induced oedema in the rat (set-up according to Winter, Risley and Nuss)
Type: in vivo
Settings: dose 0,005 mg/kg i. p., mean inhibition versus control group, values statistically significant for A and B; for prozentuale Hemmung nach Serotoningabe (%) nach 30 min: 30 min after serotonin; for prozentuale Hemmung nach Serotoningabe (%) nach 90 min: 90 min after serotonin; for prozentuale Hemmung nach Serotoningabe (%) nach 150 min: 150 min after serotonin; for prozentuale Hemmung nach Serotoningabe (%) nach 210 min: 210 min after serotonin; for prozentuale Hemmung nach Serotoningabe (%) nach 270 min: 270 min after serotonin

Compound | prozentuale Hemmung nach Serotoningabe (%) nach 30 min [%] | prozentuale Hemmung nach Serotoningabe (%) nach 90 min [%] | prozentuale Hemmung nach Serotoningabe (%) nach 150 min [%] | prozentuale Hemmung nach Serotoningabe (%) nach 210 min [%] | prozentuale Hemmung nach Serotoningabe (%) nach 270 min [%]
CC[C@@H](CO)NC(=O)[C@@H]1C=C2c3cccc4c3c(cn4C)C[C@H]2N(C)C1 [Methysergid, reference compound] | 68 | 60 | 36 | 34 | 46
C[C@@H](CO)NC(=O)[C@@H]1C=C2c3cccc4c3c(cn4Cc3cccc(F)c3)C[C@H]2N(C)C1 [Verb. A, 1-(3'-Fluorbenzyl)-ergometrindimaleinat] | 44 | 50 | 36 | 55 | 56
C[C@@H](CO)NC(=O)[C@@H]1C=C2c3cccc4c3c(cn4Cc3ccc(Cl)cc3)C[C@H]2N(C)C1 [Verb. B, 1-(4'-Chlorbenzyl)-ergometrindimaleinat] | 44 | 45 | 46 | 61 | 58
